The record followed here is ChEMBL document CHEMBL1914316, “Conversion of systemically-distributed triazole-based stearoyl-CoA desaturase (SCD) uHTS hits into liver-targeted SCD inhibitors” (Bioorg Med Chem Lett, 2011).

The source made the active and inactive calls. The calls are words filed in the database; no cut-off is given here.

In data set [1] the target is T1, Acyl-CoA desaturase 1 (Rattus norvegicus, UniProt P07308).
T1 sequence (P07308 whole entry): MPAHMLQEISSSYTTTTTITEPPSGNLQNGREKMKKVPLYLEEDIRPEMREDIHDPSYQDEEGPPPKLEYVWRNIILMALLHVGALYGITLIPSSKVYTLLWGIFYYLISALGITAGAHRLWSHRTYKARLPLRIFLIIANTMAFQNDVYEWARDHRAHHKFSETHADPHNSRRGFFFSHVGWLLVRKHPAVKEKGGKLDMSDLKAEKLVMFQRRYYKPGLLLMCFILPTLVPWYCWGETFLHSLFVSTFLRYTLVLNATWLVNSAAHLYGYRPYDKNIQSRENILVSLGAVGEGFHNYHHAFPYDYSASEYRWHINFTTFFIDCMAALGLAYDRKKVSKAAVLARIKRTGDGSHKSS
The experiment in a line: Inhibition of rat SCD by rat microsomal assay.

Data set [2] in a line: Drug uptake in C57BL/6 mouse liver at 10 mg/kg, po after 6 hrs. Type of data set: ADME, organism-based, C57BL6. The arrangement: dose 10 mg/kg, route oral. Conditions: read-out: Drug uptake.
For data set [3], the target named is T1, Acyl-CoA desaturase 1. The data set is described as follows: Inhibition of SCD in rat hepatocytes assessed as conversion of [14C]-stearic acid to [14C]-oleic acid preincubated for 15 mins measured after 1 hrs by scintillation counting. Format: cell-based, Hepatocyte.
A further data set addresses T2, Stearoyl-CoA desaturase (Homo sapiens, UniProt O00767).
T2 sequence (O00767 whole entry): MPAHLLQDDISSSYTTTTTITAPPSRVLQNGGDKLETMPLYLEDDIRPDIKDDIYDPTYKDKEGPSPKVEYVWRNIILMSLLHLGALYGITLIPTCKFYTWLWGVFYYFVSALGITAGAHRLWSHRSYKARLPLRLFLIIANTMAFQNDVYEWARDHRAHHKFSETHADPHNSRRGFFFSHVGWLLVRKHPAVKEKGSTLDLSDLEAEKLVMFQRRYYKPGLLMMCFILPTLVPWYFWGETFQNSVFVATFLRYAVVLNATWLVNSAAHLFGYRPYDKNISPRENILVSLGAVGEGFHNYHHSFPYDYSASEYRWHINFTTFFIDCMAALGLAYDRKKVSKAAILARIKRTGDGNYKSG
The experiment in a line: Inhibition of SCD in human HepG2 cells assessed as conversion of [1-(14)C]-stearic acid to (14)C-oleic acid. Format: cell-based.

Data set [4] in a line: Drug uptake in C57BL/6 mouse liver at 30 mg/kg, po after 3 hrs. Format: ADME, organism-based, C57BL6. The arrangement: dose 30 mg/kg, route oral. As to conditions: read-out: Drug uptake.
Data set [5] deals with Mus musculus. The data set is described as follows: Inhibition of SCD in C57BL/6 mouse liver assessed as conversion of [1-(14)C]-stearic acid to [1-(14)C]-oleic acid at 30 mg/kg, po after 3 hrs. Type of data set: functional.
Data set [6] can be described thus: Drug uptake in C57BL/6 mouse plasma at 10 mg/kg, po after 6 hrs. Format: ADME, organism-based, C57BL6. More on the design: dose 10 mg/kg, route oral. As to conditions: read-out: Drug uptake.
Data set [7] can be described thus: Drug uptake in C57BL/6 mouse harderian glands at 10 mg/kg, po after 6 hrs. Type of data set: ADME, organism-based, C57BL6, Harderian gland. More on the design: dose 10 mg/kg, route oral. As to conditions: read-out: Drug uptake.
A short description of data set [8]: Drug uptake in C57BL/6 mouse skin at 10 mg/kg, po after 6 hrs. Conditions: read-out: Drug uptake. More on the design: dose 10 mg/kg, route oral. Format: ADME, organism-based, C57BL6, Zone of skin.
The test system of a further data set is Nucleic Acid. The experiment in a line: Ratio of drug uptake in liver to skin of C57BL/6 mouse at 10 mg/kg, po after 6 hrs. As to conditions: in vivo. More on the design: dose 10 mg/kg, route oral. Format: ADME, organism-based, C57BL6.
Data set [9] relates to Mus musculus. The data set is described as follows: Inhibition of SCD in C57BL/6 mouse liver assessed as conversion of [1-(14)C]-stearic acid to [1-(14)C]-oleic acid at 10 mg/kg, po after 3 hrs. Format: functional. Conditions: C57BL/6, Liver.
The test system of data set [10] is Mus musculus. The experiment in a line: Ratio of drug uptake in liver to harderian glands of C57BL/6 mouse at 10 mg/kg, po after 6 hrs. Conditions: in vivo.
Data set [11] in a line: Inhibition of mouse SCD.

A word on the IC50: it is the midpoint of a concentration-inhibition curve. Take `O=C(O)Cn1nnc(-c2cncc(-c3cn(Cc4cc(Br)c(Br)c(Br)c4)nn3)c2)n1`: the IC50 on Acyl-CoA desaturase 1 [1] amounted to 56 nM; at Acyl-CoA desaturase 1 [3], 694 nM; at Stearoyl-CoA desaturase, 6310 nM. Further, the concentration at 6 h in [2] came to 470 nM. Further, the concentration at 3 h in data set [4] was determined as 900 nM. Besides, the inhibition result in the data set with Mus musculus [5] is “inactive”.

As to `O=C(O)Cn1nnc(-c2cnc(-c3cn(Cc4cc(Br)c(Br)c(Br)c4)nn3)cn2)n1`, the concentration for half-maximal inhibition (IC50) against Acyl-CoA desaturase 1 [1] was determined as 1250 nM.

`O=C(O)CCCCCc1nc(-c2cn(Cc3cc(Br)c(Br)c(Br)c3)nn2)no1` came in with a half-maximal inhibitory concentration (IC50) against Acyl-CoA desaturase 1 [1] of 8320 nM.

Regarding `O=C(O)Cn1nnc(-c2cnc(-c3cn(Cc4cc(Cl)c(Cl)c(Cl)c4)nn3)s2)n1`, the IC50 is 49 nM against Acyl-CoA desaturase 1 [1], 975 nM at Acyl-CoA desaturase 1 [3] and more than 100000 nM at Stearoyl-CoA desaturase. Also, the concentration at 6 h in data set [2] worked out at 330 nM. For the same molecule, the concentration at 3 h in data set [4] was found to be 4100 nM. Further, in the data set on Mus musculus [5], the inhibition entry is “inactive”.

`NC(=O)c1nnn(Cc2cc(Cl)c(Cl)c(Cl)c2)c1N`: at Acyl-CoA desaturase 1 [1], the IC50 is 12 nM.

In the case of `O=C(O)Cn1nnc(-c2cn(CCc3cc(Br)c(Br)c(Br)c3)nn2)n1`, it took 19900 nM to reach half-maximal inhibition at Acyl-CoA desaturase 1 [1] (IC50).

Molecule `NC(=O)c1nnn(Cc2cc(Br)c(Br)c(Br)c2)c1N` registered an IC50 at Acyl-CoA desaturase 1 [1] of 6 nM.

The inhibition in vivo is the drop in the measured response relative to a control, in per cent. For the molecule `NC(=O)c1cn(Cc2cc(Br)c(Br)c(Br)c2)nn1`, the IC50 against Acyl-CoA desaturase 1 [1] turned out to be 19 nM; on Acyl-CoA desaturase 1 [3], 10100 nM; on Stearoyl-CoA desaturase it was 760 nM. Moreover, the concentration at 6 h in data set [6] is 740 nM; in [2], 2690 nM; in data set [7] it was 6630 nM; in data set [8], 740 nM. Besides, the Ratio with Nucleic Acid is 3.6; with Mus musculus [10], 0.4. The concentration at 3 h in data set [4] came out at 14000 nM. Also, the inhibition in vivo at 10 mg/kg in the data set with Mus musculus [9] worked out at 46%.

`O=C(O)Cn1nnc(-c2ccnc(-c3cn(Cc4cc(Cl)c(Cl)c(Cl)c4)nn3)c2)n1` returned an IC50 against Acyl-CoA desaturase 1 [1] of 1310 nM.

In turn, `O=C(O)Cn1nnc(-c2cc(-c3cn(Cc4cc(Cl)c(Cl)c(Cl)c4)nn3)ccn2)n1` displayed an IC50 against Acyl-CoA desaturase 1 [1] of 719 nM.

`O=C(O)Cn1nnc(-c2ccc(-c3cn(Cc4cc(Cl)c(Cl)c(Cl)c4)nn3)nn2)n1` showed an IC50 at Acyl-CoA desaturase 1 [1] of 1810 nM.

On Acyl-CoA desaturase 1 [1], `O=C(O)Cn1nnc(-c2cnc(-c3cn(Cc4cc(Cl)c(Cl)c(Cl)c4)nn3)nc2)n1` registered an IC50 of 343 nM.

For `O=C(O)CCc1nc(-c2cn(Cc3cc(Br)c(Br)c(Br)c3)nn2)no1`, on Acyl-CoA desaturase 1 [1], the 50% inhibitory concentration (IC50) turned out to be 552 nM.

Consider `O=C(O)CCCCc1nc(-c2cn(Cc3cc(Br)c(Br)c(Br)c3)nn2)no1`, for which, at Acyl-CoA desaturase 1 [1], the midpoint of inhibition, the IC50, lay at 5250 nM.

Consider `O=C(O)Cn1nnc(-c2cc(-c3cn(Cc4cc(Br)c(Br)c(Br)c4)nn3)no2)n1`, for which the IC50 at Acyl-CoA desaturase 1 [1] turned out to be 21 nM; at Acyl-CoA desaturase 1 [3], 212 nM; at Stearoyl-CoA desaturase it was 37700 nM; in data set [11], 10 nM. The concentration at 6 h in data set [2] came to 1660 nM. Also, the concentration at 3 h in data set [4] was determined as 8400 nM. In the data set with Mus musculus [5] (C57BL/6, Liver), the inhibition in vivo at 30 mg/kg was found to be 30%. Besides, the Ratio in the data set on Mus musculus [10] is listed as 100.

For the molecule `O=C(O)Cn1nnc(-c2cn(CCCc3cc(Br)c(Br)c(Br)c3)nn2)n1`, the IC50 on Acyl-CoA desaturase 1 [1] came to 911 nM.

At Acyl-CoA desaturase 1 [1], `O=C(O)CCCc1nc(-c2cn(Cc3cc(Br)c(Br)c(Br)c3)nn2)no1` displayed an IC50 of 216 nM.

As to `O=C(O)Cn1nnc(-c2cn(Cc3cc(Br)c(Br)c(Br)c3)nn2)n1`, at Acyl-CoA desaturase 1 [1], the IC50 is more than 20000 nM.
